Laboratory results from patent US11384062B2 (CombiPhos Catalysts, Inc., priority 2017, dated 2022).

How the values were obtained:
ACHN = conditions: 10 μM single dose; Renal Cancer ACHN
Description: (§1) The test compounds were screened for anticancer activity at the Development Therapeutic Program (DTP), National Cancer Institute (NCI), USA, against a full NCI 59 cell line panel (six cell lines of leukemia, nine cell lines of lung cancer, seven cell lines of colon cancer, six cell lines of CNS cancer, nine cell lines of melanoma, seven cell lines of ovarian cancer, seven cell lines of renal cancer, two cell lines of prostate cancer, and six cell lines of breast cancer) representing nine human systems in total as leukemia, melanoma, and cancers of the lungs, colon, brain, breast, ovary, kidney, and prostate, according to the applied protocol. A primary in vitro one dose anticancer assay was performed at a single dose (10 μM) against the full NCI 59 cell line panel. The one dose data was reported as a mean graph of the percent growth of treated cells. The number reported for the single dose assay was growth relative to the no drug control and relative to the initial number of cells at time 0. […] A value of −40 means 40% lethality. A value of −100 means all cells are dead.

BT-549 = conditions: 10 μM single dose; Breast Cancer BT-549
Description: as §1

CCRF-CEM = conditions: 10 μM single dose; Leukemia CCRF-CEM
Description: as §1

DU-145 = conditions: 10 μM single dose; Prostate Cancer DU-145
Description: as §1

EKVX = conditions: 10 μM single dose; Non-Small Cell Lung Cancer EKVX
Description: as §1

HCT-116 = conditions: 10 μM single dose; Colon Cancer HCT-116
Description: as §1

HOP-92 = conditions: 10 μM single dose; Non-Small Cell Lung Cancer HOP-92
Description: as §1

IGROV1 = conditions: 10 μM single dose; Ovarian Cancer IGROV1
Description: as §1

K-562 = conditions: 10 μM single dose; Leukemia K-562
Description: as §1

LOX IMVI = conditions: 10 μM single dose; Melanoma LOX IMVI
Description: as §1

M14 = conditions: 10 μM single dose; Melanoma M14
Description: as §1

MCF7 = conditions: 10 μM single dose; Breast Cancer MCF7
Description: as §1

MDA-MB-231/ATCC = conditions: 10 μM single dose; Breast Cancer MDA-MB-231/ATCC
Description: as §1

MOLT-4 = conditions: 10 μM single dose; Leukemia MOLT-4
Description: as §1

NCI-H226 = conditions: 10 μM single dose; Non-Small Cell Lung Cancer NCI-H226
Description: as §1

NCI-H23 = conditions: 10 μM single dose; Non-Small Cell Lung Cancer NCI-H23
Description: as §1

NCI-H322M = conditions: 10 μM single dose; Non-Small Cell Lung Cancer NCI-H322M
Description: as §1

NCI-H460 = conditions: 10 μM single dose; Non-Small Cell Lung Cancer NCI-H460
Description: as §1

NCI/ADR-RES = conditions: 10 μM single dose; Ovarian Cancer NCI/ADR-RES
Description: as §1

OVCAR-3 = conditions: 10 μM single dose; Ovarian Cancer OVCAR-3
Description: as §1

OVCAR-8 = conditions: 10 μM single dose; Ovarian Cancer OVCAR-8
Description: as §1

PC-3 = conditions: 10 μM single dose; Prostate Cancer PC-3
Description: as §1

RPMI-8226 = conditions: 10 μM single dose; Leukemia RPMI-8226
Description: as §1

RXF 393 = conditions: 10 μM single dose; Renal Cancer RXF 393
Description: as §1

SF-268 = conditions: 10 μM single dose; CNS Cancer SF-268
Description: as §1

SF-295 = conditions: 10 μM single dose; CNS Cancer SF-295
Description: as §1

SF-539 = conditions: 10 μM single dose; CNS Cancer SF-539
Description: as §1

SK-MEL-2 = conditions: 10 μM single dose; Melanoma SK-MEL-2
Description: as §1

SN12C = conditions: 10 μM single dose; Renal Cancer SN12C
Description: as §1

SNB-19 = conditions: 10 μM single dose; CNS Cancer SNB-19
Description: as §1

SR = conditions: 10 μM single dose; Leukemia SR
Description: as §1

SW-620 = conditions: 10 μM single dose; Colon Cancer SW-620
Description: as §1

TK-10 = conditions: 10 μM single dose; Renal Cancer TK-10
Description: as §1

U251 = conditions: 10 μM single dose; CNS Cancer U251
Description: as §1

UACC-257 = conditions: 10 μM single dose; Melanoma UACC-257
Description: as §1

UACC-62 = conditions: 10 μM single dose; Melanoma UACC-62
Description: as §1

UO-31 = conditions: 10 μM single dose; Renal Cancer UO-31
Description: as §1

Compound	Growth Percentage (ACHN) [%]	Growth Percentage (BT-549) [%]	Growth Percentage (CCRF-CEM) [%]	Growth Percentage (DU-145) [%]	Growth Percentage (EKVX) [%]	Growth Percentage (HCT-116) [%]	Growth Percentage (HOP-92) [%]	Growth Percentage (IGROV1) [%]	Growth Percentage (K-562) [%]	Growth Percentage (LOX IMVI) [%]	Growth Percentage (M14) [%]	Growth Percentage (MCF7) [%]	Growth Percentage (MDA-MB-231/ATCC) [%]	Growth Percentage (MOLT-4) [%]	Growth Percentage (NCI-H226) [%]	Growth Percentage (NCI-H23) [%]	Growth Percentage (NCI-H322M) [%]	Growth Percentage (NCI-H460) [%]	Growth Percentage (NCI/ADR-RES) [%]	Growth Percentage (OVCAR-3) [%]	other results
[2H]C1([2H])NC([2H])([2H])C([2H])(c2ccc(-n3cc4cccc(C(N)=O)c4n3)cc2)C([2H])([2H])C1([2H])[2H] (racemic) [Example 3, 2-(4-(piperidin-3-yl-2,2,3,4,4,5,5,6,6-d9)phenyl)-2H-indazole-7-carboxamide]	77.21	113.02	87.92	97.89	100.49	83.66	98.72	83.23	89.73	76.95	98.03	75.22	83.62	86.53	93.61	91.99	98.96	86.91	97.76	103.07	Growth Percentage (OVCAR-8): 81.93%; Growth Percentage (PC-3): 80.86%; Growth Percentage (RPMI-8226): 87.86%; Growth Percentage (RXF 393): 111.56%; Growth Percentage (SF-268): 88.94%; Growth Percentage (SF-295): 96.74%; Growth Percentage (SF-539): 96.82%; Growth Percentage (SK-MEL-2): 117.90%; Growth Percentage (SN12C): 93.25%; Growth Percentage (SNB-19): 91.61%; Growth Percentage (SR): 59.44%; Growth Percentage (SW-620): 84.69%; Growth Percentage (TK-10): 98.41%; Growth Percentage (U251): 85.78%; Growth Percentage (UACC-257): 97.56%; Growth Percentage (UACC-62): 84.84%; Growth Percentage (UO-31): 80.19%
[2H]c1c([2H])c(-n2nc3c(C(N)=O)cccc3c2[2H])c([2H])c([2H])c1C1CCCNC1 (racemic) [Example 11, 2-(4-(piperidin-3-yl)phenyl-2,3,5,6-d4)-2H-indazole-3-d-7-carboxamide]	72.39	91.44	68.34	87.51	91.65	81.62	79.03	74.29	87.94	71.49	90.64	69.21	76.99	71.06	92.42	82.01	85.94	80.76	89.85	97.70	Growth Percentage (OVCAR-8): 84.66%; Growth Percentage (PC-3): 68.67%; Growth Percentage (RPMI-8226): 78.32%; Growth Percentage (RXF 393): 107.27%; Growth Percentage (SF-268): 82.89%; Growth Percentage (SF-295): 90.94%; Growth Percentage (SF-539): 77.48%; Growth Percentage (SK-MEL-2): 108.51%; Growth Percentage (SN12C): 81.90%; Growth Percentage (SNB-19): 85.34%; Growth Percentage (SR): 37.42%; Growth Percentage (SW-620): 72.01%; Growth Percentage (TK-10): 102.70%; Growth Percentage (U251): 92.89%; Growth Percentage (UACC-257): 102.12%; Growth Percentage (UACC-62): 76.75%; Growth Percentage (UO-31): 79.89%
[2H]c1c([2H])c(C2([2H])C([2H])NC([2H])C([2H])C2[2H])c([2H])c([2H])c1-n1cc2cccc(C(N)=O)c2n1 (stereo not drawn) [Example 4, 2-(4-(piperidin-3-yl-2,3,4,5,6-d5)phenyl-2,3,5,6-d4)-2H-indazole-7-carboxamide]	72.83	99.58	89.50	89.54	88.21	77.22	90.59	73.75	77.76	70.64	84.68	64.30	80.47	78.10	91.01	84.26	84.01	76.94	84.74	107.53	Growth Percentage (OVCAR-8): 82.86%; Growth Percentage (PC-3): 85.40%; Growth Percentage (RPMI-8226): 90.85%; Growth Percentage (RXF 393): 102.74%; Growth Percentage (SF-268): 89.52%; Growth Percentage (SF-295): 85.63%; Growth Percentage (SF-539): 82.30%; Growth Percentage (SK-MEL-2): 101.94%; Growth Percentage (SN12C): 89.59%; Growth Percentage (SNB-19): 88.53%; Growth Percentage (SR): 47.47%; Growth Percentage (SW-620): 72.23%; Growth Percentage (TK-10): 96.15%; Growth Percentage (U251): 83.63%; Growth Percentage (UACC-257): 107.99%; Growth Percentage (UACC-62): 85.29%; Growth Percentage (UO-31): 75.43%
